Laboratory results as given in patent publication US20160304461A1, “QUINOLONE COMPOUND AND PHARMACEUTICAL COMPOSITION” (OTSUKA PHARMACEUTICAL CO., LTD., priority 2007, published 2016).

| melting point [°C] | SMILES |
| --- | --- |
| 236 to 237 | COc1ccc(-c2c[nH]c3c(C(=O)N4CCCC4)ccc(F)c3c2=O)cc1 [Example 23, 5-Fluoro-3-(4-methoxyphenyl)-8-(pyrrolidin-1-carbonyl)-1H-quinolin-4-one] |
| 170 to 171 | CCCOc1ccc(F)c2c(=O)c(-c3ccc(OC)cc3)c(C(F)(F)F)[nH]c12 [Example 77, 5-Fluoro-3-(4-methoxyphenyl)-8-propoxy-2-trifluoromethyl-1H-quinolin-4-one] |
| 213 to 215 | COc1ccc(-c2c[nH]c3c(OC4CCCC4)ccc(Br)c3c2=O)cc1 [Example 104, 5-Bromo-8-cyclopentyloxy-3-(4-methoxyphenyl)-1H-quinolin-4-one] |
| 194 to 195 | CCCOc1ccc(F)c2c(=O)c(-c3ccc(OC)c(F)c3)c[nH]c12 [Example 2, 5-Fluoro-3-(3-fluoro-4-methoxyphenyl)-8-propoxy-1H-quinolin-4-one] |
| 201 to 202 | CCCOc1ccc(F)c2c(=O)c(-c3ccc(C(=O)OC)cc3)c[nH]c12 [Example 55, Methyl 4-(5-fluoro-4-oxo-8-propoxy-1,4-dihydroquinolin-3-yl)benzoate] |
| 203 to 204 | CCCOc1ccc(F)c2c(=O)c(-c3ccco3)c(C)[nH]c12 [Example 76, 5-Fluoro-3-furan-2-yl-2-methyl-8-propoxy-1H-quinolin-4-one] |
| 156 to 157 | CCCOc1ccc(F)c2c(=O)c(-c3cc(OC)ccc3OC)c[nH]c12 [Example 65, 3-(2,5-Dimethoxyphenyl)-5-fluoro-8-propoxy-1H-quinolin-4-one] |
| 249 to 251 | COc1ccc(-c2c[nH]c3c(N4CCOCC4)ccc(F)c3c2=O)cc1 [Example 14, 5-Fluoro-3-(4-methoxyphenyl)-8-morpholin-4-yl-1H-quinolin-4-one] |
| 233 to 234 | CCCOc1ccc(F)c2c(=O)c(-c3cccs3)c(C)[nH]c12 [Example 72, 5-Fluoro-2-methyl-8-propoxy-3-thiophen-2-yl-1H-quinolin-4-one] |
| 204 to 206 | CCCOc1ccc(F)c2c(=O)c(-c3ccc(OC)cc3OC(C)C)c[nH]c12 [Example 15, 5-Fluoro-3-(2-isopropoxy-4-methoxyphenyl)-8-propoxy-1H-quinolin-4-one] |
| 193 to 195 | CCCOc1ccc(F)c2c(=O)c(-c3ccccc3OC)c[nH]c12 [Example 7, 5-Fluoro-3-(2-methoxyphenyl)-8-propoxy-1H-quinolin-4-one] |
| 193 to 194 | COc1ccc(-c2c[nH]c3c(OCC4CCC4)ccc(F)c3c2=O)cc1 [Example 41, 8-Cyclobutylmethoxy-5-fluoro-3-(4-methoxyphenyl)-1H-quinolin-4-one] |
| 187 to 188 | CCCOc1ccc(F)c2c(=O)c(-c3ccc(CC)cc3)c(C(F)(F)F)[nH]c12 [Example 80, 3-(4-Ethylphenyl)-5-fluoro-8-propoxy-2-trifluoromethyl-1H-quinolin-4-one] |
| 255 to 257 | CCCOc1ccc(F)c2c(=O)c(-c3ccc(N(C)C)cc3)c(C)[nH]c12 [Example 73, 3-(4-Dimethylaminophenyl)-5-fluoro-2-methyl-8-propoxy-1H-quinolin-4-one] |
| 108 to 110 | COc1ccc(-c2c[nH]c3c(OCC4CCCO4)ccc(F)c3c2=O)cc1 (stereo not drawn) [Example 39, 5-Fluoro-3-(4-methoxyphenyl)-8-(tetrahydrofuran-2-ylmethoxy)-1H-quinolin-4-one] |
| 236 to 237 | CCOc1ccc(F)c2c(=O)c(-c3ccc(Cl)cc3Cl)c[nH]c12 [Example 13, 3-(2,4-Dichlorophenyl)-8-ethoxy-5-fluoro-1H-quinolin-4-one] |
| 194 to 196 | CCCOc1ccc(Cl)c2c(=O)c(-c3ccc(OC)cc3)c[nH]c12 [Example 103, 5-Chloro-3-(4-methoxyphenyl)-8-propoxy-1H-quinolin-4-one] |

| SMILES | melting point [°C] |
| --- | --- |
| COc1ccc(-c2c[nH]c3c(OC(C)(C)C)ccc(F)c3c2=O)cc1 [Example 42, 8-tert-Butoxy-5-fluoro-3-(4-methoxyphenyl)-1H-quinolin-4-one] | 206 to 208 |
